Among the test systems are CCRF-CEM leukemia; HCT-116 colon; HOP-62 NSCLC; KM12 colon; MDA-MB-231 breast; MOLT-4 leukemia; NCI-H522 lung; RXF 393 renal; SN12C renal; UACC-257 melanoma.
Common to all, as to assay: NCI tumour cell line growth inhibition, 48 h

This passage reports GI50 and TGI results from PubChem BioAssay (NCI).

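Cultured in 96-well plates, cells were exposed to test compound for 48 hours across five concentrations. GI50 is the concentration that inhibits growth by half. TGI is the concentration that stops growth completely.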

As for `CN1CCCCC1CCN1c2ccccc2Sc2ccc(Br)cc21` (configuration not stated), the GI50 was 2770 nM in the test on CCRF-CEM leukemia; 1880 nM in the test on HCT-116 colon; 5460 nM in the test with HOP-62 NSCLC; 2220 nM in the test on KM12 colon; 1800 nM with MDA-MB-231 breast; 2830 nM in the test with MOLT-4 leukemia. For the same compound, the GI50 in the test on NCI-H522 lung was 1730 nM; with RXF 393 renal it was 2180 nM; with SN12C renal, 3230 nM; with UACC-257 melanoma, 1910 nM. In addition, the TGI worked out at 10.1 µM in the test on CCRF-CEM leukemia; 3.67 µM with HCT-116 colon; 22.8 µM in the test with HOP-62 NSCLC; 4.78 µM with KM12 colon; 4.18 µM in the test with MDA-MB-231 breast; 7.83 µM with MOLT-4 leukemia. Further, the TGI in the test on NCI-H522 lung worked out at 3.49 µM; in the test with RXF 393 renal, 6.46 µM; in the test on SN12C renal, 11.9 µM; with UACC-257 melanoma, 3.55 µM.
As to `Nc1ccc(CC[C@H]2CCC/C=C/[C@@H]3C[C@H](O)C[C@H]3[C@H](O)/C=C/C(=O)O2)cc1`, the GI50 in the test on CCRF-CEM leukemia is 43.7 nM; in the test on HCT-116 colon, 31.4 nM; in the test on HOP-62 NSCLC, 46.3 nM; with KM12 colon it was 23.5 nM; with MDA-MB-231 breast, 21.2 nM; in the test with MOLT-4 leukemia, 29 nM. For the same compound, the GI50 in the test with NCI-H522 lung was 81.6 nM; in the test with RXF 393 renal it was 21.5 nM; in the test with SN12C renal, 63.9 nM; in the test on UACC-257 melanoma it was 56.5 nM. The TGI in the test on CCRF-CEM leukemia was more than 64.9 µM; with HCT-116 colon, 0.114 µM; in the test with KM12 colon it was 0.0615 µM; in the test on MDA-MB-231 breast, 0.0421 µM; in the test with MOLT-4 leukemia it was 0.0847 µM; with NCI-H522 lung, 0.375 µM. In addition, the values for the TGI in the test with RXF 393 renal, in the test with SN12C renal and in the test with UACC-257 melanoma were 0.0621 µM, more than 100 µM and 37.1 µM, respectively.
`COc1cc2c(c(OC)c1OC)-c1cc(I)c(O)cc1[C@@H](NC(C)=O)CC2`: the GI50 is 36.4 nM in the test with CCRF-CEM leukemia; 40.9 nM in the test with HCT-116 colon; 179 nM in the test on HOP-62 NSCLC; 43.2 nM in the test on KM12 colon; 85.9 nM in the test with MDA-MB-231 breast; 43.7 nM with MOLT-4 leukemia. For the same compound, the GI50 in the test on NCI-H522 lung is 48.4 nM; in the test on RXF 393 renal, 49.6 nM; with SN12C renal, 106 nM; in the test on UACC-257 melanoma, 49100 nM. For the same compound, the TGI in the test on CCRF-CEM leukemia is more than 100 µM; in the test with HCT-116 colon, 19.4 µM; in the test with HOP-62 NSCLC, more than 100 µM; in the test on KM12 colon, 1.36 µM; with MOLT-4 leukemia, more than 100 µM; with NCI-H522 lung it was more than 100 µM. The TGI with RXF 393 renal, with SN12C renal and in the test with UACC-257 melanoma was more than 100 µM each time.
For `CC(C)(Oc1ccc(-c2cccc3ccccc23)cc1)C(=O)O`, the TGI in the test with CCRF-CEM leukemia, in the test on HCT-116 colon, in the test on HOP-62 NSCLC, in the test on KM12 colon, in the test on MDA-MB-231 breast and with MOLT-4 leukemia was more than 100 µM each time. For the same compound, the TGI in the test on NCI-H522 lung, in the test with RXF 393 renal, with SN12C renal and with UACC-257 melanoma was more than 100 µM throughout.
As for `O=C(Nc1ccn(C2CC(O)C(COC(c3ccccc3)(c3ccccc3)c3ccccc3)O2)c(=O)n1)c1ccccc1` (configuration not stated), the TGI turned out to be 6.2 µM in the test with CCRF-CEM leukemia; 4.29 µM in the test on HCT-116 colon; 18.8 µM in the test with HOP-62 NSCLC; 17.9 µM in the test on KM12 colon; 7.5 µM in the test with MDA-MB-231 breast; 5.1 µM in the test on MOLT-4 leukemia. Also, the TGI amounted to 13.4 µM in the test on NCI-H522 lung, 6.99 µM in the test with RXF 393 renal, 3.61 µM in the test with SN12C renal and 28.3 µM in the test with UACC-257 melanoma.
`COc1cccc(C2CC(=O)Nc3c2c(C)nn3-c2nc3ccccc3[nH]2)c1OC` (configuration not stated): the GI50 in the test on CCRF-CEM leukemia was 1860 nM; in the test with HCT-116 colon, 3360 nM; in the test on HOP-62 NSCLC, 2730 nM; in the test with KM12 colon, 4170 nM; in the test with MDA-MB-231 breast it was 2920 nM; with MOLT-4 leukemia it was 53.1 nM. Further, the GI50 in the test on NCI-H522 lung is 3700 nM; with RXF 393 renal, 2910 nM; in the test with SN12C renal it was 4290 nM; with UACC-257 melanoma, 5770 nM. Also, the TGI in the test with CCRF-CEM leukemia was more than 100 µM; in the test on HCT-116 colon, 14.6 µM; in the test on HOP-62 NSCLC, 7.78 µM; in the test on KM12 colon, 19.8 µM; in the test on MDA-MB-231 breast, 8.26 µM; with NCI-H522 lung it was 17.8 µM. Also, the results for the TGI with RXF 393 renal, with SN12C renal and in the test with UACC-257 melanoma were 10.6 µM, 48.3 µM and 39.8 µM, respectively.
As for `Cc1cc(N2CCC(N3CCCC3)CC2)nc(/N=C(\N)Nc2ccc(Cl)c(Cl)c2)n1`, the GI50 with CCRF-CEM leukemia is 3280 nM; with HCT-116 colon, 1930 nM; with HOP-62 NSCLC, 1810 nM; in the test on KM12 colon, 1720 nM; in the test with MDA-MB-231 breast, 1670 nM; in the test on MOLT-4 leukemia it was 3320 nM. Further, the GI50 is 1520 nM in the test with NCI-H522 lung, 1620 nM in the test on RXF 393 renal, 2700 nM in the test on SN12C renal and 1920 nM in the test on UACC-257 melanoma. Also, the TGI in the test with CCRF-CEM leukemia is more than 100 µM; in the test with HCT-116 colon, 3.63 µM; in the test with HOP-62 NSCLC, 3.8 µM; in the test on KM12 colon it was 3.64 µM; in the test on MDA-MB-231 breast it was 3.64 µM; with MOLT-4 leukemia, more than 100 µM. The TGI with NCI-H522 lung is 3.32 µM; in the test with RXF 393 renal, 3.09 µM; with SN12C renal, 10.9 µM; in the test with UACC-257 melanoma, 3.54 µM.
For the compound `CC[C@H](C)[C@H](NC(=O)C12C3C4C1C1C2C3C41NC)C(=O)N(C)[C@H](C[C@@H](OC(C)=O)c1nc(C(=O)N[C@@H](Cc2ccccc2)C[C@H](C)C(=O)OC)cs1)C(C)C` (some centres not stated), the GI50 with CCRF-CEM leukemia was 445 nM; in the test on HCT-116 colon it was 346 nM; in the test with HOP-62 NSCLC, 1180 nM; in the test with KM12 colon, 517 nM; with MDA-MB-231 breast, 798 nM; in the test with MOLT-4 leukemia, 713 nM. For the same compound, the GI50 was 56.1 nM in the test on NCI-H522 lung, 413 nM with RXF 393 renal, 896 nM in the test with SN12C renal and 655 nM in the test on UACC-257 melanoma. Also, the TGI with CCRF-CEM leukemia was more than 14.3 µM; in the test on HCT-116 colon, more than 14.3 µM; in the test on HOP-62 NSCLC, more than 11.7 µM; in the test with KM12 colon, more than 14.3 µM; in the test with MDA-MB-231 breast, more than 13 µM; in the test with MOLT-4 leukemia, more than 14.3 µM. The TGI in the test on NCI-H522 lung is 0.967 µM; in the test with RXF 393 renal it was more than 14.3 µM; with SN12C renal it was more than 14.3 µM; with UACC-257 melanoma, more than 14.3 µM.
